Experiments:
Assay in all cases: relative viability (nuclei count vs DMSO), 5 days (fraction); higher = more cells survive
[1] = compound: C1CNCCC1C2=CC(=NN2)C3=CC=NC=C3 + Cc1cc(Nc2cc(N3CCN(C)CC3)nc(Sc3ccc(NC(=O)C4CC4)cc3)n2)n[nH]1 [Tozasertib] (partner 0.1 µM)
In short: (§1)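 Medians of duplicate plates are given as relative viability. That measure is the nuclei count in treated wells divided by the count in vehicle wells. Counts were taken on 4× images of lung cancer cell lines in 1536-well plates, 5 days after pin-tool dosing the day after seeding with one drug alone or a fixed anchor-drug dose plus five library-drug doses (not always all listed) in √10 steps.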

[2] = compound: C1CNCCC1C2=CC(=NN2)C3=CC=NC=C3 + CC(=O)Nc1cccc(-n2c(=O)n(C3CC3)c(=O)c3c(Nc4ccc(I)cc4F)n(C)c(=O)c(C)c32)c1 [Trametinib] (partner 0.02 µM)
In short: as §1

[3] = compound: O[C@H]1CC[C@H](Nc2ncc3nc(Nc4c(F)cc(F)cc4F)n([C@H]4CCOC4)c3n2)CC1 [Tanzisertib] + COc1cc2c(Oc3ccc(NC(=O)C4(C(=O)Nc5ccc(F)cc5)CC4)cc3F)ccnc2cc1OCCCN1CCOCC1 [Foretinib] (partner 0.25 µM)
In short: as §1

[4] = compound: C1CNCCC1C2=CC(=NN2)C3=CC=NC=C3 + COc1cc2c(Oc3ccc(NC(=O)C4(C(=O)Nc5ccc(F)cc5)CC4)cc3F)ccnc2cc1OCCCN1CCOCC1 [Foretinib] (partner 0.25 µM)
In short: as §1

NCI-H1395
relative viability ([1]; first compound 0.08 µM): 0.731 | relative viability ([1]; first compound 0.8 µM): 0.643 | relative viability ([1]; first compound 2.53 µM): 0.813 | relative viability ([1]; first compound 8 µM): 0.766 | relative viability ([2]; first compound 0.08 µM): 0.905 | relative viability ([2]; first compound 0.8 µM): 0.992 | relative viability ([2]; first compound 2.53 µM): 0.966 | relative viability ([2]; first compound 8 µM): 1.16 | relative viability ([3]; first compound 0.08 µM): 1.06 | relative viability ([3]; first compound 0.253 µM): 0.941 | relative viability ([3]; first compound 0.8 µM): 0.96 | relative viability ([3]; first compound 2.53 µM): 0.945 | relative viability ([3]; first compound 8 µM): 0.966 | relative viability ([4]; first compound 0.08 µM): 0.982 | relative viability ([4]; first compound 0.8 µM): 0.821 | relative viability ([4]; first compound 2.53 µM): 1.15 | relative viability ([4]; first compound 8 µM): 1.04

NCI-H647
relative viability ([1]; first compound 0.08 µM): 0.263 | relative viability ([1]; first compound 0.8 µM): 0.413 | relative viability ([1]; first compound 2.53 µM): 0.297 | relative viability ([1]; first compound 8 µM): 0.263 | relative viability ([2]; first compound 0.08 µM): 0.491 | relative viability ([2]; first compound 0.8 µM): 0.379 | relative viability ([2]; first compound 2.53 µM): 0.535 | relative viability ([2]; first compound 8 µM): 0.525 | relative viability ([3]; first compound 0.08 µM): 1.23 | relative viability ([3]; first compound 0.253 µM): 1.25 | relative viability ([3]; first compound 0.8 µM): 1.11 | relative viability ([3]; first compound 2.53 µM): 1.29 | relative viability ([3]; first compound 8 µM): 1.12 | relative viability ([4]; first compound 0.08 µM): 0.922 | relative viability ([4]; first compound 0.8 µM): 1.04 | relative viability ([4]; first compound 2.53 µM): 1.27 | relative viability ([4]; first compound 8 µM): 1.32

NCI-H650
relative viability ([1]; first compound 0.08 µM): 0.738 | relative viability ([1]; first compound 0.8 µM): 0.729 | relative viability ([1]; first compound 2.53 µM): 0.799 | relative viability ([1]; first compound 8 µM): 0.793 | relative viability ([2]; first compound 0.08 µM): 0.825 | relative viability ([2]; first compound 0.8 µM): 1.14 | relative viability ([2]; first compound 2.53 µM): 1.1 | relative viability ([2]; first compound 8 µM): 1.02 | relative viability ([3]; first compound 0.08 µM): 0.979 | relative viability ([3]; first compound 0.253 µM): 1.07 | relative viability ([3]; first compound 0.8 µM): 1.04 | relative viability ([3]; first compound 2.53 µM): 1.09 | relative viability ([3]; first compound 8 µM): 1.08 | relative viability ([4]; first compound 0.08 µM): 1 | relative viability ([4]; first compound 0.8 µM): 0.924 | relative viability ([4]; first compound 2.53 µM): 1.06 | relative viability ([4]; first compound 8 µM): 0.998

EKVX
relative viability ([1]; first compound 0.08 µM): 0.396 | relative viability ([1]; first compound 0.8 µM): 0.303 | relative viability ([1]; first compound 2.53 µM): 0.491 | relative viability ([1]; first compound 8 µM): 0.401 | relative viability ([2]; first compound 0.08 µM): 0.402 | relative viability ([2]; first compound 2.53 µM): 0.366 | relative viability ([2]; first compound 8 µM): 0.445 | relative viability ([3]; first compound 0.08 µM): 1.08 | relative viability ([3]; first compound 0.253 µM): 0.681 | relative viability ([3]; first compound 0.8 µM): 0.759 | relative viability ([3]; first compound 2.53 µM): 0.872 | relative viability ([3]; first compound 8 µM): 0.497 | relative viability ([4]; first compound 0.08 µM): 0.902 | relative viability ([4]; first compound 0.8 µM): 0.437 | relative viability ([4]; first compound 2.53 µM): 1.5 | relative viability ([4]; first compound 8 µM): 0.716

NCI-H460
relative viability ([1]; first compound 0.08 µM): 0.474 | relative viability ([1]; first compound 0.8 µM): 0.381 | relative viability ([1]; first compound 2.53 µM): 0.617 | relative viability ([1]; first compound 8 µM): 0.449 | relative viability ([2]; first compound 0.08 µM): 0.0741 | relative viability ([2]; first compound 0.8 µM): 0.122 | relative viability ([2]; first compound 2.53 µM): 0.158 | relative viability ([2]; first compound 8 µM): 0.188 | relative viability ([3]; first compound 0.08 µM): 1.05 | relative viability ([3]; first compound 0.253 µM): 1.03 | relative viability ([3]; first compound 0.8 µM): 0.884 | relative viability ([3]; first compound 2.53 µM): 1.07 | relative viability ([3]; first compound 8 µM): 1.01 | relative viability ([4]; first compound 0.08 µM): 0.978 | relative viability ([4]; first compound 0.8 µM): 1.1 | relative viability ([4]; first compound 2.53 µM): 1.02 | relative viability ([4]; first compound 8 µM): 1.07

NCI-H2342
relative viability ([1]; first compound 0.08 µM): 0.437 | relative viability ([1]; first compound 0.8 µM): 0.491 | relative viability ([1]; first compound 2.53 µM): 0.537 | relative viability ([1]; first compound 8 µM): 0.518 | relative viability ([2]; first compound 0.08 µM): 0.716 | relative viability ([2]; first compound 0.8 µM): 0.798 | relative viability ([2]; first compound 2.53 µM): 0.794 | relative viability ([2]; first compound 8 µM): 1.04 | relative viability ([3]; first compound 0.08 µM): 1.21 | relative viability ([3]; first compound 0.253 µM): 0.977 | relative viability ([3]; first compound 0.8 µM): 1.03 | relative viability ([3]; first compound 2.53 µM): 0.982 | relative viability ([3]; first compound 8 µM): 1.08 | relative viability ([4]; first compound 0.08 µM): 0.899 | relative viability ([4]; first compound 0.8 µM): 1.04 | relative viability ([4]; first compound 2.53 µM): 1.21 | relative viability ([4]; first compound 8 µM): 1.29

LCLC-97TM1
relative viability ([1]; first compound 0.08 µM): 0.225 | relative viability ([1]; first compound 0.8 µM): 0.177 | relative viability ([1]; first compound 2.53 µM): 0.256 | relative viability ([1]; first compound 8 µM): 0.293 | relative viability ([2]; first compound 0.08 µM): 0.191 | relative viability ([2]; first compound 0.8 µM): 0.204 | relative viability ([2]; first compound 2.53 µM): 0.172 | relative viability ([2]; first compound 8 µM): 0.193 | relative viability ([3]; first compound 0.08 µM): 0.928 | relative viability ([3]; first compound 0.253 µM): 0.945 | relative viability ([3]; first compound 0.8 µM): 0.89 | relative viability ([3]; first compound 2.53 µM): 0.854 | relative viability ([3]; first compound 8 µM): 0.946 | relative viability ([4]; first compound 0.08 µM): 0.946 | relative viability ([4]; first compound 0.8 µM): 0.888 | relative viability ([4]; first compound 2.53 µM): 0.938 | relative viability ([4]; first compound 8 µM): 0.904

COR-L23
relative viability ([1]; first compound 0.08 µM): 0.222 | relative viability ([1]; first compound 0.8 µM): 0.201 | relative viability ([1]; first compound 2.53 µM): 0.229 | relative viability ([1]; first compound 8 µM): 0.172 | relative viability ([2]; first compound 0.08 µM): 0.583 | relative viability ([2]; first compound 0.8 µM): 0.62 | relative viability ([2]; first compound 2.53 µM): 0.678 | relative viability ([2]; first compound 8 µM): 0.608 | relative viability ([3]; first compound 0.08 µM): 1.01 | relative viability ([3]; first compound 0.253 µM): 0.966 | relative viability ([3]; first compound 0.8 µM): 1 | relative viability ([3]; first compound 2.53 µM): 1.13 | relative viability ([3]; first compound 8 µM): 1 | relative viability ([4]; first compound 0.08 µM): 1.07 | relative viability ([4]; first compound 0.8 µM): 0.946 | relative viability ([4]; first compound 2.53 µM): 1.01 | relative viability ([4]; first compound 8 µM): 0.931

NCI-H1355
relative viability ([1]; first compound 0.08 µM): 0.556 | relative viability ([1]; first compound 0.8 µM): 0.595 | relative viability ([1]; first compound 2.53 µM): 0.57 | relative viability ([1]; first compound 8 µM): 0.622 | relative viability ([2]; first compound 0.08 µM): 0.419 | relative viability ([2]; first compound 0.8 µM): 0.442 | relative viability ([2]; first compound 2.53 µM): 0.466 | relative viability ([2]; first compound 8 µM): 0.406 | relative viability ([3]; first compound 0.08 µM): 1.03 | relative viability ([3]; first compound 0.253 µM): 0.961 | relative viability ([3]; first compound 0.8 µM): 0.965 | relative viability ([3]; first compound 2.53 µM): 1.04 | relative viability ([3]; first compound 8 µM): 0.948 | relative viability ([4]; first compound 0.08 µM): 0.906 | relative viability ([4]; first compound 0.8 µM): 0.938 | relative viability ([4]; first compound 2.53 µM): 1.05 | relative viability ([4]; first compound 8 µM): 0.923

Source: the supplement of paper PMC10307832
